Experimental data as given in patent US11136291B2, “Antifungal compounds and uses thereof” (Dana-Farber Cancer Institute, Inc., priority 2016, dated 2021).
Values after ≈ are worked out from the molar mass of the structure shown.

Legend:
[1] = system: C. glabrata adherence to CHO-Lec2 cells; experiment: Yeast adherence to epithelial CHO-Lec2 cells; settings: PDR1^L280F mutant, 30 μM iKIX1 or 40 μM ketoconazole
[2] = system: Candida krusei DSY471; experiment: Broth dilution MIC; settings: Pichia kudriavzevii, ATCC6258
Method: (§1) Antifungal susceptibility testing was carried out using broth dilution assays which examined effects of two-fold dilutions of compounds on cellular growth. The minimum inhibitory concentration (MIC) was defined as the drug concentration at which the optical density was equal to or decreased more than 50% from that of the drug-free culture.

[3] = system: Candida glabrata DSY565; experiment: Broth dilution MIC; settings: Nakaseomyces glabratus
Method: as §1

[4] = system: Candida tropicalis DSY472; experiment: Broth dilution MIC; settings: ATCC75
Method: as §1

[5] = system: Candida glabrata DSY562; experiment: Broth dilution MIC; settings: Nakaseomyces glabratus
Method: as §1

[6] = system: Saccharomyces cerevisiae DSY2094; experiment: Broth dilution MIC
Method: as §1

[7] = system: Candida albicans DSY2621; experiment: Broth dilution MIC
Method: as §1

[8] = system: Candida albicans SC5314; experiment: Broth dilution MIC
Method: as §1

[9] = system: Candida parapsilosis DSY473; experiment: Broth dilution MIC; settings: ATCC22019
Method: as §1

[10] = system: PDRE-dependent luciferase gene transcription; assay type: cell-based, Saccharomyces cerevisiae; settings: 40 μM ketoconazole; for Luciferase activity (5 μM + keto) (% DMSO + keto): 5 μM compound; for Luciferase activity (50 μM + keto) (% DMSO + keto): 50 μM compound
[11] = system: C. glabrata; assay type: in vivo, mouse; settings: single agent 100 mg/kg/day i.p.
[12] = system: C. glabrata; experiment: Mouse disseminated fungal burden model; assay type: in vivo; settings: mouse, in vivo
[13] = system: C. glabrata PDR1 wild-type or PDR1^L280F strains; experiment: Galleria mellonella survival assay; assay type: in vivo; settings: […]
[14] = system: CgCDR1 transcription (CgPdr1 target); experiment: Transcription assay, quantitative real-time PCR of CgPdr1 target genes; assay type: cell-based, Candida glabrata
[15] = target: T1, CgGal11A KIX domain (Candida glabrata, UniProt Q6FRS9); experiment: Fluorescence polarization (FP) binding/competition assay, CgPdr1 AD30 with CgGal11A KIX; settings: compared with iKIX1
T1 construct: other: compared with iKIX1; other: GST-CgGal11A KIX 3 μM, 30 nM FITC-CgPdr1 AD30; Kd of CgPdr1 AD30 for CgGal11A KIX domain; other: FP titration, 30 nM FITC-CgPdr1 AD30; Kd of the CgPdr1 AD for the CgGal11A KIX domain; apparent Ki; fused on or other part: N-terminal His6-GST tag
T1 sequence (Q6FRS9 whole entry, looked up, the tested form may be a part): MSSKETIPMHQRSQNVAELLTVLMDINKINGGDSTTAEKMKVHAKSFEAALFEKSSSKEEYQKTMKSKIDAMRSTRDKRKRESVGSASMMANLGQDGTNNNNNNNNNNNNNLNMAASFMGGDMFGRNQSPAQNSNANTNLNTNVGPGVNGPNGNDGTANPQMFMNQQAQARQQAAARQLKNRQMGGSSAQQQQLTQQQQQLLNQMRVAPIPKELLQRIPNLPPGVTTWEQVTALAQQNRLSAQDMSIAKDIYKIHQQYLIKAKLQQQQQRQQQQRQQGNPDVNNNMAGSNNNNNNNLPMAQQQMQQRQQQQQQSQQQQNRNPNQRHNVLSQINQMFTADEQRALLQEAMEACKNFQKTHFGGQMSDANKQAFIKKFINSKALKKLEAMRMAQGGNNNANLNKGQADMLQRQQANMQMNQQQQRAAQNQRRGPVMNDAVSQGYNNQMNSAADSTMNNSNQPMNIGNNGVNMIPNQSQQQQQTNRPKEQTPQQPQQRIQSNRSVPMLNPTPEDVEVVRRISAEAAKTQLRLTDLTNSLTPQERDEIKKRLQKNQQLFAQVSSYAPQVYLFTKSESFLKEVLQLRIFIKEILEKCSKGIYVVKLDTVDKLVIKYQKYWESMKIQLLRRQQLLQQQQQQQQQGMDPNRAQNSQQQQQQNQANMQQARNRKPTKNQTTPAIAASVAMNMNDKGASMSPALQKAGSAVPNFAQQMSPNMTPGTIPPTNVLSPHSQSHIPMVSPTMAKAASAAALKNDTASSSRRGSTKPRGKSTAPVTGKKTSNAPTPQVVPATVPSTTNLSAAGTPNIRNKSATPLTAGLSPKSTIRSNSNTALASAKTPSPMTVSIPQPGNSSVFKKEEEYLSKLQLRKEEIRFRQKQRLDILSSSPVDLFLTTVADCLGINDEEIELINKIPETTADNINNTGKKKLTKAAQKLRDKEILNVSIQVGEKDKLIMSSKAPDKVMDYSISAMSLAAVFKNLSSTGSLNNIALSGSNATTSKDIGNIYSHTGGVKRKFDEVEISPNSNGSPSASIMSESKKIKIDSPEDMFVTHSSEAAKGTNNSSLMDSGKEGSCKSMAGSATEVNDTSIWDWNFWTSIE
Method: A fluorescein-tagged 30 amino acid C-terminal activation domain of CgPdr1 (FITC-[…] (SEQ ID NO: 1)) CgPdr1 AD30 was purchased as a synthetic peptide from Pepide2.0. The CgGal11A KIX domain was expressed as a His6-GST fusion protein and purified by affinity chromatography with Ni-NTA resin (Qiagen) and size exclusion chromatography (Sephadex 75, Pharmacia). […] For small molecule screening, fluorescein-CgPdr1 AD30 was held at a concentration of 30 nM and the GST-tagged CgGal11A KIX was at a concentration of 1 μM (above the Kd). The screen was carried out in duplicate and the volume in each well was 25 μL.
To measure the dissociation constant (Kd) of CgPdr1 AD30, FITC labeled CgPdr1 AD30 was held at a concentration of 30 nM and the GST-tagged CgGal11A KIX was prepared with concentrations ranging from 0 to 300 μM. The IC50 for iKIX-1 binding was measured with GST-tagged CgGal11A KIX held at a constant 3 μM concentration, iKIX-1 was titrated from 0 to 1000 μM and 30 nM FITC-labeled CgPdr1 AD30 was added subsequently with an HP D300 digital dispenser (Tecan Group. Maennerdorf, Switzerland). All experiments were carried out in duplicate and the s.d. is reported at each point on the plot.
The FP titration curve of the CgPdr1 AD30 was fitted to GraphPad Prisms (La Jolla, Calif., USA) One site-total binding equation (equation 1). […]

[16] = system: C. glabrata CgPDR1 wild-type and gain-of-function mutant strains; experiment: Spot plating on gradient plates with azole; assay type: cell-based, Candida glabrata

| Compound | MIC [2] | MIC [3] | MIC [4] | MIC [5] | MIC [6] | MIC [7] | MIC [8] | MIC [9] | Luciferase activity (5 μM + keto) (% DMSO + keto) [10] | Luciferase activity (50 μM + keto) (% DMSO + keto) [10] | also measured |
| --- | --- | --- | --- | --- | --- | --- | --- | --- | --- | --- | --- |
| CC(=O)N1CCN(c2ccc(OCC3COC(Cn4ccnc4)(c4ccc(Cl)cc4Cl)O3)cc2)CC1 (stereo not drawn) [ketoconazole, reference compound] |  |  |  |  |  |  |  |  |  |  | relative adherence to epithelial cells [1]: reduce adherence; relative adherence to epithelial cells ([1]; listed as Ketoconazole): reduced relative adherence to levels comparable to a PDR1 wild-type strain |
| N#CC1(C(=O)NNC(=S)Nc2ccc(Cl)c(Cl)c2)CC1 [Compound A18, 2-(1-Cyanocyclopropanecarbonyl)-N-(3,4-dichlorophenyl)hydrazinecarbothioamide] | 6.25 µM (≈ 2.06 µg/mL) | 12.5 µM (≈ 4.12 µg/mL) | 12.5 µM (≈ 4.12 µg/mL) | 6.25 µM (≈ 2.06 µg/mL) | 12.5 µM (≈ 4.12 µg/mL) | 6.25 µM (≈ 2.06 µg/mL) | 6.25 µM (≈ 2.06 µg/mL) | 25 µM (≈ 8.23 µg/mL) |  |  |  |
| N#CCC(=O)NNC(=S)Nc1ccc(C(F)(F)F)c(Cl)c1 [drawing 47] |  |  |  |  |  |  |  |  | 40 % DMSO + keto | 21 % DMSO + keto |  |
| N#CCC(=O)NNC(=S)Nc1ccc(Cl)c(F)c1 [Compound A03, N-(4-Chloro-3-fluorophenyl)-2-(2-cyanoacetyl)hydrazinecarbothoamide] | 12.5 µM (≈ 3.58 µg/mL) | 25 µM (≈ 7.17 µg/mL) | 12.5 µM (≈ 3.58 µg/mL) | 12.5 µM (≈ 3.58 µg/mL) | 12.5 µM (≈ 3.58 µg/mL) | 25 µM (≈ 7.17 µg/mL) | 25 µM (≈ 7.17 µg/mL) | 50 µM (≈ 14.3 µg/mL) |  |  |  |
| N#CC(C(=O)NNC(=S)Nc1ccc(Cl)c(Cl)c1)c1ccccc1 (stereo not drawn) |  |  |  |  |  |  |  |  | 86 % DMSO + keto | 38 % DMSO + keto |  |
| N#CCC(=O)NNC(=S)Nc1cc(Cl)cc(Cl)c1 [Compound A16] | 3.25 µM (≈ 0.985 µg/mL) | 6.25 µM (≈ 1.89 µg/mL) | 3.25 µM (≈ 0.985 µg/mL) | 3.12 µM (≈ 0.947 µg/mL) | 3.12 µM (≈ 0.947 µg/mL) | 6.25 µM (≈ 1.89 µg/mL) | 6.25 µM (≈ 1.89 µg/mL) | 12.5 µM (≈ 3.79 µg/mL) |  |  |  |
| COc1cc(NC(=S)NNC(=O)CC#N)cc(Cl)c1Cl |  |  |  |  |  |  |  |  | 52 % DMSO + keto | 26 % DMSO + keto |  |
| OC(Cn1cncn1)(Cn1cncn1)c1ccc(F)cc1F [fluconazole, reference compound] |  |  |  |  |  |  |  |  |  |  | fungal load in bladder and kidney [11]: significantly reduces fungal burden in the bladder and kidney; tissue fungal burden ([12]; 25 mg/kg): poorly reduced tissue burden; tissue fungal burden in the kidney and spleen ([12]; 100 mg/kg): significantly reduced tissue fungal burden; survival of G. mellonella larvae ([13]; fluconazole 50 mg/kg alone): sensitive to fluconazole alone; survival of G. mellonella larvae ([13]; single agent (fluconazole 50 mg/kg or iKIX1 25 mg/kg) vs vehicle): did not significantly increase survival |
| N#CCC(=O)NNC(=S)Nc1cc(Cl)cc(C(F)(F)F)c1 [drawing 49] |  |  |  |  |  |  |  |  | 77 % DMSO + keto | 28 % DMSO + keto |  |
| N#CCC(=O)NNC(=S)Nc1ccc(C(F)(F)F)c(Cl)c1 [Compound A07, N-(3-Chloro-4-(trifluoromethyl)phenyl)-2-(2-cyanoacetyl) hydrazinecarbothioamide] | 6.25 µM (≈ 2.1 µg/mL) | 3.12 µM (≈ 1.05 µg/mL) | 3.25 µM (≈ 1.09 µg/mL) | 3.12 µM (≈ 1.05 µg/mL) | 3.12 µM (≈ 1.05 µg/mL) | 3.25 µM (≈ 1.09 µg/mL) | 3.25 µM (≈ 1.09 µg/mL) | 6.25 µM (≈ 2.1 µg/mL) |  |  |  |
| N#CCC(=O)NNC(=S)Nc1ccc(Cl)c(F)c1 [drawing 46] |  |  |  |  |  |  |  |  | 54 % DMSO + keto | 30 % DMSO + keto |  |
| N#CC1(C(=O)NNC(=S)Nc2ccc(Cl)c(Cl)c2)CCCCC1 [drawing 51] |  |  |  |  |  |  |  |  | 53 % DMSO + keto | 14 % DMSO + keto |  |
| N#CC1(C(=O)NNC(=S)Nc2ccc(Cl)c(Cl)c2)CC1 [drawing 45] |  |  |  |  |  |  |  |  | 62 % DMSO + keto | 25 % DMSO + keto | CgCDR1 qRT-PCR (30 μM in PDR1 WT) (% DMSO + keto) ([14]; 30 μM compound, PDR1 WT, ketoconazole induced): 5 % DMSO + keto |
| N#CCC(=O)NNC(=S)NCc1ccccc1 [Compound A02, reference compound] | > 100 µM | > 100 µM | > 100 µM | > 100 µM | > 100 µM | > 100 µM | > 100 µM | > 100 µM |  |  | IC50 in the FP assay (in words) [15]: increases the IC50; synergistic C. glabrata cell growth inhibition with azole antifungal agents [16]: abolishes activity; ketoconazole-induced luciferase activity (in words) [10]: abolishes activity; ketoconazole-induced CgPdr1 target gene (CgCDR1) transcription (in words) ([14]; CgPDR1 wild-type strain (SFY114), pre-treatment then 40 μM ketoconazole): abolishes activity |
| N#CCC(=O)NNC(=S)Nc1cc(Cl)cc(C(F)(F)F)c1 [Compound A52-8] | 3.12 µM (≈ 1.05 µg/mL) | 6.25 µM (≈ 2.1 µg/mL) | 3.12 µM (≈ 1.05 µg/mL) | 3.12 µM (≈ 1.05 µg/mL) | 3.12 µM (≈ 1.05 µg/mL) | 3.12 µM (≈ 1.05 µg/mL) | 3.12 µM (≈ 1.05 µg/mL) | 12.5 µM (≈ 4.21 µg/mL) |  |  |  |
| N#CC1(C(=O)NNC(=S)Nc2ccc(Cl)c(Cl)c2)CCCCC1 [DFCI-1] | 3.12 µM (≈ 1.16 µg/mL) | 6.25 µM (≈ 2.32 µg/mL) | 6.25 µM (≈ 2.32 µg/mL) | 6.25 µM (≈ 2.32 µg/mL) | 6.25 µM (≈ 2.32 µg/mL) | 12.5 µM (≈ 4.64 µg/mL) | 6.25 µM (≈ 2.32 µg/mL) | 12.5 µM (≈ 4.64 µg/mL) |  |  |  |
| N#CCC(=O)NNC(=S)Nc1cc(Cl)cc(Cl)c1 [drawing 48] |  |  |  |  |  |  |  |  | 45 % DMSO + keto | 25 % DMSO + keto |  |
